Values joined by “and” are separate entries in the source; they are usually repeats but may differ in a detail not shown here. Equal entries are not always repeated.
System: platelets
Experiment: Ex vivo platelet aggregation after intravenous administration
Assay type: in vivo, rat
Description: The blood was withdrawn at three points in time, 10 minutes, 30 minutes and 1 hour after administration. Platelets were prepared from the blood samples taken, and they were used to study the aggregation rates when platelet aggregation was induced by 0.3 to 6 μg/ml of collagen. In a control group, the aggregation rates after administration of a solvent (physiological saline) were measured.
It was studied whether the compound of the present invention would suppress ex vivo platelet aggregation dose-dependently.
The blood was withdrawn 60 minutes after administration, and platelets were prepared from the blood. Platelet aggregation was induced by 4 to 7 μg/ml of collagen using the platelets.
The blood was withdrawn 1 hour after intravenous administration, and platelets were prepared from the blood. Platelet aggregation was induced by 1 to 6 μg/ml of collagen using the platelets.

## CC/C=C\C/C=C\C/C=C\C/C=C\C/C=C\C/C=C\CCC(=O)NCCC1CCCN1C (racemic) [Compound 2, (4Z,7Z,10Z,13Z,16Z,19Z)-N-[2-(1-methylpyrrolidin-2-yl)ethyl]docosahexaenoamide]
26 nM versus 2.1±0.8 μM in vitro
  ex vivo IC50 blood concentration as fraction of in vitro IC50: about 1/80
0.0001 mg/kg rat caudal vein, 60 minutes, collagen 4 μg/ml
  ex vivo platelet aggregation (in words): suppressed compared with the solvent-treated group, although the suppressive action was weak
10 mg/kg caudal vein, male SD rats, blood 10 minutes, 30 minutes and 1 hour after administration, collagen 0.3 to 6 μg/ml
  ex vivo platelet aggregation, onset of efficacy (in words): platelet aggregation was suppressed in comparison with the solvent group
1, 0.1, 0.01 or 0.001 mg/kg rat caudal vein, blood 60 minutes after administration, collagen 4 to 7 μg/ml
  ex vivo platelet aggregation (in words): platelet aggregation was suppressed in comparison with the solvent-treated group
FIG. 3, 0.0001 to 1 mg/kg rat caudal vein, 60 minutes
  ex vivo platelet aggregation, dose-dependency (in words): suppressing platelet aggregation ex vivo dose-dependently
Platelet, iv, 630 ng/kg, rat blood estimated at about 60 ml/kg, read-out: presumed blood concentration at the ex vivo IC50 dose
  estimated blood concentration at the ex vivo IC50 dose: 26 nM
rat, intravenous
  IC50 for suppression of ex vivo platelet aggregation relative to conventional GPIIb/IIIa receptor antagonists: about 1,000 times
rat, intravenous, 60 minutes after administration, collagen 4 μg/ml
  50% suppression point, IC50, ex vivo platelet aggregation: 630 ± 36 ng/kg and 630 ng/kg
